Measured values: PMC9676260, “Enzymatic properties of CARF-domain proteins in Synechocystis sp. PCC 6803” (Frontiers in Microbiology, 2022)

What was measured:
[1] = target: T1, SyCsx1 (Synechocystis sp. PCC 6803, UniProt Q6ZED7); test: fluorogenic RNaseAlert cleavage; gel-based RNA cleavage; type: biochemical; conditions: allosteric activator binding the CARF domain; 300 nM cA4, 300 nM SyCsx1, 40 nM RNaseAlert substrate, 50 mM HEPES pH 7.5, 50 mM KCl, 1 mM DTT, 30 °C
T1 construct: gene slr7061; full-length, His-tagged (pQE-80), E. coli BL21(DE3); about 89 kDa by SEC, dimer; encoded on plasmid pSYSA, CRISPR2 (III-D) locus
T1 sequence (Q6ZED7 1-422): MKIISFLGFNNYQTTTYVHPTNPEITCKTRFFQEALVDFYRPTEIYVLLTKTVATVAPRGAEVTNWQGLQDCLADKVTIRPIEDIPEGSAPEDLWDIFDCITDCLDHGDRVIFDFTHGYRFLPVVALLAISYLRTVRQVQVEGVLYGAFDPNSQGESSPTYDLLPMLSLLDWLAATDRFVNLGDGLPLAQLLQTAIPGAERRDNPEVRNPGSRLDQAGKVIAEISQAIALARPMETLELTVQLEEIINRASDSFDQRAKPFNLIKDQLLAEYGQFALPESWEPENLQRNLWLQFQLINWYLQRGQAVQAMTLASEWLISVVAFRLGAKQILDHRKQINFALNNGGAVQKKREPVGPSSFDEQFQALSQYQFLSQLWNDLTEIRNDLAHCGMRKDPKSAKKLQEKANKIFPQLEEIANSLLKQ

[2] = target: T2, SyCsm6 (Synechocystis sp. PCC 6803, UniProt Q6ZED6); test: LC-MS of cOA degradation products; coupled SyCsx1 activation assay; type: biochemical; conditions: ring nuclease; 667 nM cA4, 2 µM SyCsm6, 30 °C, 2 h
T2 construct: gene sll7062; full-length, His-tagged (pQE-80), E. coli BL21(DE3); encoded on plasmid pSYSA, CRISPR2 (III-D) locus
T2 sequence (Q6ZED6 1-371): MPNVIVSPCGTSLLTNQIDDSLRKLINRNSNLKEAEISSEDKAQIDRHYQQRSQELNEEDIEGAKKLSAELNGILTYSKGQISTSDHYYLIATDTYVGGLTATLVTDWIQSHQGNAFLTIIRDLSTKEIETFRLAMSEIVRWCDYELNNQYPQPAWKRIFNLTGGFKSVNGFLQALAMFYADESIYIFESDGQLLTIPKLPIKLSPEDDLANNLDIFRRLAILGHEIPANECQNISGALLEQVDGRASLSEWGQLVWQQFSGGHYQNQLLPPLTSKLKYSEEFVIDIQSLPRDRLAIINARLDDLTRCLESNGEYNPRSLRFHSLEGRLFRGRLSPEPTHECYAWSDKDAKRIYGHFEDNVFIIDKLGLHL

[3] = target: T2, SyCsm6; test: LC-MS of cOA degradation products; type: biochemical; conditions: ring nuclease; 667 nM cA6, 2 µM SyCsm6, 30 °C, 2 h
[4] = target: T1, SyCsx1; test: fluorogenic RNaseAlert cleavage; type: biochemical; conditions: activator; cFA4 preincubated at 20 nM (mock or with SyCsm6), then 300 nM SyCsx1, 20 nM RNaseAlert substrate, 30 °C
[5] = target: SyCsm6 (Csm6 homolog of the Synechocystis sp. PCC 6803 CRISPR2 type III-D system) (Synechocystis sp. PCC 6803); test: SEC; Superdex 200 10/300 column in 50 mM Tris pH 8.0, 150 mM NaCl, 5% glycerol; elution volume compared with the monomer's mass; monomer to dimer
[6] = target: SyCsx1 (Csx1 homolog of the Synechocystis sp. PCC 6803 CRISPR2 type III-D system) (Synechocystis sp. PCC 6803); test: as above

Compound: Nc1ncnc2c1ncn2[C@@H]1O[C@@H]2COP(=O)(O)O[C@H]3[C@@H](O)[C@H](n4cnc5c(N)ncnc54)O[C@@H]3COP(=O)(O)O[C@H]3[C@@H](O)[C@H](n4cnc5c(N)ncnc54)O[C@@H]3COP(=O)(O)O[C@H]3[C@@H](O)[C@H](n4cnc5c(N)ncnc54)O[C@@H]3COP(=O)(O)O[C@H]2[C@H]1O [cA4]
- fluorogenic RNaseAlert cleavage; gel-based RNA cleavage [1]: the addition of cA4 leads to a significant increase of the fluorescence signal
- LC-MS of cOA degradation products; coupled SyCsx1 activation assay [2]: the substrate peak was gone and cA4 was converted to a product

Compound: Nc1ncnc2c1ncn2[C@@H]1O[C@@H]2COP(=O)(O)O[C@H]3[C@@H](O)[C@H](n4cnc5c(N)ncnc54)O[C@@H]3COP(=O)(O)O[C@H]3[C@@H](O)[C@H](n4cnc5c(N)ncnc54)O[C@@H]3COP(=O)(O)O[C@H]3[C@@H](O)[C@H](n4cnc5c(N)ncnc54)O[C@@H]3COP(=O)(O)O[C@H]3[C@@H](O)[C@H](n4cnc5c(N)ncnc54)O[C@@H]3COP(=O)(O)O[C@H]3[C@@H](O)[C@H](n4cnc5c(N)ncnc54)O[C@@H]3COP(=O)(O)O[C@H]2[C@H]1O [cA6]
- LC-MS of cOA degradation products [3]: cA6 was cleaved to A2 > P and an additional product

Compound: Nc1ncnc2c1ncn2[C@@H]1O[C@@H]2COP(=O)(O)O[C@H]3[C@@H](F)[C@H](n4cnc5c(N)ncnc54)O[C@@H]3COP(=O)(O)O[C@H]3[C@@H](F)[C@H](n4cnc5c(N)ncnc54)O[C@@H]3COP(=O)(O)O[C@H]3[C@@H](F)[C@H](n4cnc5c(N)ncnc54)O[C@@H]3COP(=O)(O)O[C@H]2[C@H]1F [cFA4]
- fluorogenic RNaseAlert cleavage [4]: cFA4 is a less potent activator of SyCsx1 as seen by the slower substrate turnover

Compound: SyCsm6 (Csm6 homolog of the Synechocystis sp. PCC 6803 CRISPR2 type III-D system) (enzyme)
- stoichiometry N [5]: 2

Compound: SyCsx1 (Csx1 homolog of the Synechocystis sp. PCC 6803 CRISPR2 type III-D system) (enzyme)
- stoichiometry N [6]: 2
